Data set [1] can be described thus: Stability in PBS or serum-containing media. It counts as physicochemical.
For another data set, the target named is T1, β-Galactosidase (Escherichia coli, UniProt P00722).
T1 construct: purchased Millipore-Sigma Aldrich
Put plainly: Stability of AlDeLuc to β-Galactosidase. It counts as biochemical. Conditions: 10 μM; 1 unit of β-Gal. How it is done:
Exploring the Stability of AlDeLuc to β-Galactosidase. The stability of AlDeLuc (10 μM) against β-Galactosidase (β-gal) was determined using a black 96-well plate and monitored using the IVIS imaging system. In a 96-well plate was added PBS (pH 7.4), β-gal (1 unit), and AlDeLuc. As a positive control to the same plate, was added PBS (pH 7.4), ALDH1A1 (0.4 μM), NAD^+ (1 mM), and acid activated AlDeLuc. Immediately after AlDeLuc was added, ATP-MgSO4 (45 μL, prepared by mixing 17.78 mM ATP-Mg and 35.56 mM MgSO4 in a 1:1 ratio in PBS buffer) and luciferase (5 μL, 1 mg/mL in PBS containing 10% glycerol) were administered to initiate bioluminescence production. Light was collected promptly after mixing, and the total luminescent counts were measured for both conditions. The total volume of each well was 200 μL with 0.1% DMSO. All data reported as the mean±standard deviation (n=4).

A further data set relates to rat liver microsomes. The data set is described as follows: Stability of AlDeLuc to rat liver microsomes. Conditions: 2 μM; RLM 0.25 to 5.0 ng/mL; NADPH; 37° C. It counts as in vitro ADME. On the procedure:
Investigating the Stability of AlDeLuc to Rat Liver Microsomes. The stability of AlDeLuc (2 μM) in rat liver microsomes (RLM) was measured in a black 96-well plate and was monitored using the IVIS imaging system. To Eppendorf tubes containing potassium phosphate buffer (0.1 M, pH 7.4), RLM (0.25 ng/mL or 5 ng/mL), and AlDeLuc (2 μM) was added NADPH (50 μM in potassium phosphate buffer) and incubated at 37° C. for 15 minutes. In parallel, Eppendorf tubes with potassium phosphate buffer (0.1 M, pH 7.4), ALDH1A1 (0.4 μM), NAD^+ (1 mM), and AlDeLuc (2 μM, activated with acid) were warmed at 37° C. for 15 minutes. The solutions were transported to the laboratory housing the IVIS imaging system (˜10 minutes), transferred to a 96-well plate, and immediately administered ATP-MgSO4 (45 μL, prepared by mixing 17.78 mM ATP-Mg and 35.56 mM MgSO4 in a 1:1 ratio in PBS buffer) and luciferase (5 μL, 1 mg/mL in PBS containing 10% glycerol) to initiate bioluminescence production. Light was collected immediately after mixing, and the total luminescent counts were collected in each condition. The total volume of each well was 200 μL with 0.2% DMSO. All data reported as the mean±standard deviation (n=4).
(In general: Liver microsomes are vesicles of endoplasmic reticulum, rich in cytochrome P450 enzymes.)

A further data set deals with ALDH1A1 activity. The data set is described as follows: High-fat diet inflammatory model, orthotopic 4T1-Luc tumors, AlDeLuc imaging after L-NMMA. Conditions: control group (water gavage), AlDeLuc 0.55 mg/kg, 40 min. It counts as in vivo, BALB/c mice. How it is done: Finally, to examine how NO influences ALDH1A1 activity in vivo we placed BALB/c mice (female, 5-7 weeks old) on a high-fat diet for 40 weeks to induce an inflammatory response through elevated NO production. This period consists of a ˜20-week priming period prior to inoculation of the animals with 4T1-Luc cells at the mammary fat pad. At this point, the mice were randomized into two groups. The treatment group was administered L-NMMA (50 mg/kg), whereas the control group received water via oral gavage for 20 days. The day after the final treatment, mice from both conditions were treated systemically with AlDeLuc, and the bioluminescence was monitored (FIG. 5e). […] At the completion of the diet study, animals were sacrificed, and their tumors were excised for further immunohistochemical analysis.
Generation of an Orthotopic 4T1-Luc Breast Cancer Model for Diet Studies. Female BALB/c mice (˜6 weeks old) were inoculated with 4T1-Luc cells (50 μL of 1×10^5 cells in 1:1 v/v serum-free RPMI 1640 media and Matrigel) via subcutaneous injections into the mammary fat pad. Tumor volumes were measured using the caliper method every three days. Body weight was measured daily over the course of the experiment.

In the next data set the target is T2, ALDH1A1 (Mus musculus, UniProt P24549).
T2 sequence (P24549 1-501): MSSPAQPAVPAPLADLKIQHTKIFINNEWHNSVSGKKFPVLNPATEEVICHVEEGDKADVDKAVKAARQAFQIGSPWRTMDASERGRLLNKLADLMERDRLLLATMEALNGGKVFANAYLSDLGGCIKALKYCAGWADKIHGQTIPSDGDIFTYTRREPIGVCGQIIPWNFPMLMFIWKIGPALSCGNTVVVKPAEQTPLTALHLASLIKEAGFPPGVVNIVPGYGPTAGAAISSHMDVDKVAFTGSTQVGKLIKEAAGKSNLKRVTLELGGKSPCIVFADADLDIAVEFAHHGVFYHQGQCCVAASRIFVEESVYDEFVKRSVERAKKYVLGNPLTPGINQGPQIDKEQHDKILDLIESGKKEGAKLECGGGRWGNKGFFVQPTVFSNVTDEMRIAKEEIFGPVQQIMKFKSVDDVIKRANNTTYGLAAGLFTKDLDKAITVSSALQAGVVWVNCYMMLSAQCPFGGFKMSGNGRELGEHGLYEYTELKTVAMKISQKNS
The data set is described as follows: Validation of ALDH-mediated activation of AlDeLuc in heterotopic breast cancer model via DEAB inhibition. It counts as in vivo, BALB/c mice. Details: from tissue; host or cells: 4T1-Luc tumours in BALB/c mice. The note with it: AlDeLuc alone 0.55 mg/kg; 40 min after injection. How it is done:
Validation of ALDH-mediated Activation of AlDeLuc in a Heterotopic Breast Cancer Model via DEAB Inhibition. BALB/c mice bearing 4T1-Luc tumors were anesthetized using isoflurane (1-3% for maintenance; up to 5% for induction) in oxygen from a precision vaporizer. After testing to ensure animals are fully under anesthesia, each mouse was administered AlDeLuc via retro-orbital injection (0.55 mg/kg, 1:19 v/v DMSO:PBS). Images were captured using the IVIS imaging system 40 minutes after injection. Bioluminescence light was captured in open mode (no filters were applied). ROIs were drawn around each tumor and summed for each animal. The signal intensity was quantified using the Living Image Analysis Software. After two days, the same animals were anesthetized and co-administered a solution of AlDeLuc and DEAB (0.55 mg/kg and 93 mg/kg respectively, 1:19 v/v DMSO:PBS). After the allotted 40 minutes, the images were captured using the IVIS imaging system. Bioluminescence was collected in open mode (no filters were applied). ROIS were drawn around each tumor and summed for each animal. The signal intensity was quantified using the Living Image Analysis Software.

T1 sequence (P00722 2-1024): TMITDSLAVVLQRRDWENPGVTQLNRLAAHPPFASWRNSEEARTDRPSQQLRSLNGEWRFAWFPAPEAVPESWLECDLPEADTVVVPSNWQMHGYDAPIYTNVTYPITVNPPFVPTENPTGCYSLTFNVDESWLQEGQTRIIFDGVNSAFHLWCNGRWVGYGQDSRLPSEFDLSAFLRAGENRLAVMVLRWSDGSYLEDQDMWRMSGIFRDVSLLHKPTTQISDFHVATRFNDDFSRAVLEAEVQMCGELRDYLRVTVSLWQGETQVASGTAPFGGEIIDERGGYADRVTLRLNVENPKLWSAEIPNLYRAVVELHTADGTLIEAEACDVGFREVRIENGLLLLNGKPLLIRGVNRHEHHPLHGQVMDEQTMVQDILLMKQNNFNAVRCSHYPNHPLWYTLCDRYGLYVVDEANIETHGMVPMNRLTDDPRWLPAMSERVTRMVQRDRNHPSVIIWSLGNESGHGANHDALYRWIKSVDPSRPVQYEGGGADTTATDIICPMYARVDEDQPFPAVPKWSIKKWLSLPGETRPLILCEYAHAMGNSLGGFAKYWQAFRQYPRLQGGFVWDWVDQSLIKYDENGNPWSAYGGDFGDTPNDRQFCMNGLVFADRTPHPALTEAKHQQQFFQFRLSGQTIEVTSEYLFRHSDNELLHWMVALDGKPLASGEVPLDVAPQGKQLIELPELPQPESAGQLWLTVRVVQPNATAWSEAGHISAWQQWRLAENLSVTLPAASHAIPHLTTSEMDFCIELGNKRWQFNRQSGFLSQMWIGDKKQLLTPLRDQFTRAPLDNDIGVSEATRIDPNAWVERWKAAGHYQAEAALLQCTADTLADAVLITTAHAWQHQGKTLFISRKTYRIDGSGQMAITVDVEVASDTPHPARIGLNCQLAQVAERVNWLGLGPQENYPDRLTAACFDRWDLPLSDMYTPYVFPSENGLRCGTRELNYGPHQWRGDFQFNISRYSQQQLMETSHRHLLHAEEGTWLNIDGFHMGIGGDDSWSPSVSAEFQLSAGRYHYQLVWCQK

For the compound `CCN(CC)c1ccc2nc(C3=N[C@@H](C(OC)OC)CS3)sc2c1` [AlDeLuc, (S)-2-(4-(dimethoxymethyl)-4,5-dihydrothiazol-2-yl)-N,N-diethylbenzo[d]thiazol-6-amine], the hydrolysis result in data set [1] (PBS) and in data set [1] (serum-containing media) was “does not hydrolyze” in each case. At β-Galactosidase, the stability of acetal entry is on record as “completely stable”. Further, the “bioluminescence after incubation with rat liver microsomes” value in the data set with rat liver microsomes is “negligible bioluminescence”. Further, the total luminescent counts in the data set with ALDH1A1 activity is given as 1.7±0.8×10^4; at ALDH1A1, 2.18±0.60×10^4.

Source of the values: US20250282770A1, “BIOLUMINESCENT PROBES TO TRACK STEM CELLS IN VIVO” (THE BOARD OF TRUSTEES OF THE UNIVERSITY OF ILLINOIS, priority 2024, published 2025).
